Experimental data taken from ChEMBL document CHEMBL5352382, “Synthesis and evaluation of imidazo[1,2-a]pyrazine derivatives as small molecule Gαq/11 inhibitors against uveal melanoma” (Eur J Med Chem, 2022).
Calls of active or inactive are those of the source. No cut-off for these calls is given here.

What was measured:
[1] = target: T1, GNAQ/GNA11 (Homo sapiens) (UniProt P50148+P29992); experiment: Inhibition of Galphaq/11 (unknown origin) expressed in CHO-M1 cells at 10 uM preincubated for 1 hr followed by carbachol stimulation for 30 mins and measured after 1 hr by IP1 accumulation based HTRF assay relative to control; assay type: cell-based; settings: time 150.0 min
[2] = Antiproliferative activity against human MP41 cells assessed as reduction in cell viability measured after 72 hrs by CCK-8 method; assay type: functional, cell-based; settings: MP41, 72 h
[3] = Antiproliferative activity against human 921 cells assessed as reduction in cell viability measured after 72 hrs by CCK-8 method; assay type: functional, cell-based; settings: Homo sapiens, 921, 72 h
MP41 [4] = experiment: Inhibition of cell migration in human MP41 cells incubated for 24 hrs by wound healing assay; assay type: functional, cell-based; settings: dose 3-10 µM
[5] = target: Transcriptional coactivator YAP1 (Homo sapiens) (UniProt P46937); experiment: Activation of YAP phosphorylation in human MP41 cells at 20 uM by Western blot analysis; assay type: cell-based; settings: filed as activator, time <= 24.0 hrs, TDE = time-dependent effect
Sequence of Transcriptional coactivator YAP1 (Homo sapiens) (P46937 whole entry): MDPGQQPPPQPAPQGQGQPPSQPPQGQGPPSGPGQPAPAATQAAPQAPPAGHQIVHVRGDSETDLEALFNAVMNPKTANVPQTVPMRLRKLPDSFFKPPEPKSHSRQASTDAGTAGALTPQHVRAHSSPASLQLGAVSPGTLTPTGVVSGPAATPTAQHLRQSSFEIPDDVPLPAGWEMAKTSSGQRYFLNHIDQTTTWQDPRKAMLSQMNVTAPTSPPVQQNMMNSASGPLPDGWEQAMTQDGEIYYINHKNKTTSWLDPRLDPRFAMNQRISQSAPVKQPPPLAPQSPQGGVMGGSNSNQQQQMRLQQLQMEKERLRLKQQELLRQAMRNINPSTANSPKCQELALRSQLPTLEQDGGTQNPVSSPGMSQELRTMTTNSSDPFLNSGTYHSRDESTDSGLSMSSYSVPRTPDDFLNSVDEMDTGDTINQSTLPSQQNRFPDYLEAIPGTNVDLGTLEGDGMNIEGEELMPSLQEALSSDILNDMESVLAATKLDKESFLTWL

MP41 [6] = experiment: Antiproliferative activity against human MP41 cells transfected with SiGNA11 assessed as reduction in cell viability measured after 72 hrs by CCK-8 method; assay type: functional, cell-based; settings: dose <= 10.0 µM
[7] = target: T2, Mitogen-activated protein kinase; ERK1/ERK2 (Homo sapiens) (UniProt P27361+P28482); experiment: Inhibition of ERK1/2 phosphorylation in human MP41 cells incubated for 4 hrs by Western blot analysis; assay type: cell-based; settings: dose 3-20 µM
T2 sequence (P27361 whole entry, looked up): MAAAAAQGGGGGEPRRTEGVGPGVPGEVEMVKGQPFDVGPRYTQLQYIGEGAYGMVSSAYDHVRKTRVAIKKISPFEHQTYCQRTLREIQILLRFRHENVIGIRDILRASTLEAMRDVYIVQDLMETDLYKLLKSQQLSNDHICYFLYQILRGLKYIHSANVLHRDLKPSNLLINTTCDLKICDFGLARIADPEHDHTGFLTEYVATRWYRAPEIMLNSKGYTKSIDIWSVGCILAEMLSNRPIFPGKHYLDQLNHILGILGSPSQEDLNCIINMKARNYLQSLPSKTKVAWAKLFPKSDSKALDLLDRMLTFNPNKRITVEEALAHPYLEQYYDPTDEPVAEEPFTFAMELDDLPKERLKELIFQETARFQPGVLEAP
T2 sequence (P28482 whole entry, looked up): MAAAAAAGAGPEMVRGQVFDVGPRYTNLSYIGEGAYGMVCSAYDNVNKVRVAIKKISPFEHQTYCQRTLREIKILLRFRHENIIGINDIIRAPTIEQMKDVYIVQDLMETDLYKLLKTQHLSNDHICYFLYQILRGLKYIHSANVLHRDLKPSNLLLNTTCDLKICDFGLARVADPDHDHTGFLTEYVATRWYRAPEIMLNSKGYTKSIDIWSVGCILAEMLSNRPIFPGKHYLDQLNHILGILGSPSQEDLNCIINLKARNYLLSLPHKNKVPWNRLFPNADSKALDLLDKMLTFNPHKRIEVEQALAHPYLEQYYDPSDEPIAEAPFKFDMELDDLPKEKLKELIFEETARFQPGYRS

SK-MEL-2 = experiment: Antiproliferative activity against human SK-MEL-2 cells assessed as reduction in cell viability at 10 uM measured after 72 hrs by CCK-8 method; assay type: functional, cell-based
[8] = target: T2, Mitogen-activated protein kinase; ERK1/ERK2 (Homo sapiens); experiment: Inhibition of ERK1/2 phosphorylation in human MP41 cells at 20 uM by Western blot analysis; assay type: cell-based; settings: time <= 24.0 hrs, TDE = time-dependent effect
A-375 = experiment: Antiproliferative activity against human A-375 cells assessed as reduction in cell viability at 10 uM measured after 72 hrs by CCK-8 method; assay type: functional, cell-based
[9] = target: Transcriptional coactivator YAP1 (Homo sapiens) (UniProt P46937); experiment: Activation of YAP phosphorylation in human MP41 cells incubated for 24 hrs by Western blot analysis; assay type: cell-based; settings: filed as activator, dose 3-20 µM
MP41 [10] = experiment: Antiproliferative activity against human MP41 cells assessed as reduction in cell viability at 1.25 uM measured after 72 hrs by CCK-8 method; assay type: functional, cell-based
MP41 [11] = experiment: Inhibition of cell invasion in human MP41 cells measured after 48 hrs by crystal violet staining based Boyden chamber invasion assay; assay type: functional; settings: dose 3-10 µM
MP41 [12] = experiment: Inhibition of colony formation in human MP41 cells assessed as inhibition of cell proliferation incubated for 14 days with replacement with fresh medium for every 3 days by crystal violet staining based analysis; assay type: functional; settings: dose 1-5 µM, time 14.0 day
[13] = target: T2, Mitogen-activated protein kinase; ERK1/ERK2 (Homo sapiens); experiment: Inhibition of ERK1/2 phosphorylation in human MP41 cells incubated for 24 hrs by Western blot analysis; assay type: cell-based; settings: dose 3-20 µM
[14] = target: T1, GNAQ/GNA11 (Homo sapiens); experiment: Binding affinity to Galphaq/11 (unknown origin) assessed as increase in thermal stability at 10 uM incubated for 1 hr by CETSA; assay type: protein assay
[15] = target: Transcriptional coactivator YAP1 (Homo sapiens) (UniProt P46937); experiment: Activation of YAP phosphorylation in human MP41 cells incubated for 4 hrs by Western blot analysis; assay type: cell-based; settings: filed as activator, dose 3-20 µM
[16] = target: T3, Type-1 angiotensin II receptor (Homo sapiens) (UniProt P30556); experiment: (§1) Inhibition of human AT1R expressed in HEK293 cells using […] incubated for 1 hr followed by addition of angiotensinII and substrate by BRET assay; assay type: cell-based; settings: dose 0.3-100 µM
T3 sequence (whole entry): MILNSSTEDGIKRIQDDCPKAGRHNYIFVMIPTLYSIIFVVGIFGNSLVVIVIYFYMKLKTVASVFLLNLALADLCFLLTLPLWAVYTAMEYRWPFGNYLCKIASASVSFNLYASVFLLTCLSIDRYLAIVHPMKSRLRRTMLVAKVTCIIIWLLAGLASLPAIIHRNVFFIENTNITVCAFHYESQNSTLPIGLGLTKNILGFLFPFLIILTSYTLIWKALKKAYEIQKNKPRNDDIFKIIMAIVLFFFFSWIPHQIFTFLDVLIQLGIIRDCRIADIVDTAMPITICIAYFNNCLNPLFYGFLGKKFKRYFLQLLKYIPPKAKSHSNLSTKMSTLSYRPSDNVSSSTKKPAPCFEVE

921 [17] = experiment: Antiproliferative activity against human 921 cells assessed as reduction in cell viability at 1.25 uM measured after 72 hrs by CCK-8 method; assay type: functional, cell-based
MP41 [18] = experiment: Antiproliferative activity against human MP41 cells assessed as reduction in cell viability at 10 uM measured after 72 hrs by CCK-8 method; assay type: functional, cell-based
921 [19] = experiment: Antiproliferative activity against human 921 cells assessed as reduction in cell viability at 10 uM measured after 72 hrs by CCK-8 method; assay type: functional, cell-based
MP41 [20] = experiment: Inhibition of colony formation in human MP41 cells assessed as inhibition of cell proliferation at 1 uM incubated for 14 days with replacement with fresh medium for every 3 days by crystal violet staining based analysis; assay type: functional; settings: time 14.0 day
MP41 [21] = experiment: Inhibition of cell migration in human MP41 cells at 1 uM incubated for 24 hrs by wound healing assay; assay type: functional, cell-based
HEK-293T [22] = experiment: Cytotoxicity against HEK293T cells assessed as reduction in cell viability at upto 10 uM measured after 72 hrs by CCK-8 method; assay type: toxicity, cell-based; settings: human
BEAS-2B [23] = experiment: Cytotoxicity against human BEAS-2B cells assessed as reduction in cell viability at upto 10 uM measured after 72 hrs by CCK-8 method; assay type: toxicity, cell-based
[24] = Chemical stability of the compound assessed as compound remaining measured after 7 days by LC-MS analysis; assay type: physicochemical; settings: time 7 day; read-out: Stability
[25] = Aqueous solubility of the compound in deionized water at 25 degreeC by HPLC analysis; assay type: physicochemical
[26] = Metabolic stability in human liver microsomes assessed as half life preincubated for 15 mins followed by NADPH addition and measured upto 45 mins by LC-MS/MS analysis; assay type: ADME, Microsome; settings: time < 60 min
[27] = Metabolic stability in human liver microsomes assessed as intrinsic clearance preincubated for 15 mins followed by NADPH addition and measured upto 45 mins by LC-MS/MS analysis; assay type: ADME, Microsome; settings: time < 60 min, read-out: CLH
HEK-293T [28] = experiment: Cytotoxicity against HEK293T cells assessed as reduction in cell viability at 10 uM measured after 72 hrs by CCK-8 method; assay type: toxicity, cell-based; settings: human
BEAS-2B [29] = experiment: Cytotoxicity against human BEAS-2B cells assessed as reduction in cell viability at 10 uM measured after 72 hrs by CCK-8 method; assay type: toxicity, cell-based
[30] = Inhibition of Galphaq (unknown origin) preincubated for 1 hr followed by carbachol stimulation for 30 mins and measured after 1 hr by IP1 accumulation based HTRF assay; design: species or system Homo sapiens
[31] = target: T4, Type-1 angiotensin II receptor (Homo sapiens, UniProt P30556); experiment: as §1; assay type: cell-based
T4 sequence (P30556 whole entry): T3 sequence (whole entry)

inhibition [1] | SMILES | IC50 [2] | IC50 [3] | also measured
8.9% | CN1CCN(CCN2CCn3cc(-c4ccc5c(c4)CCCC5)nc3[C@@H]2CC2CCCCC2)CC1 | 11 µM | 6.5 µM | 
5.2% | CCC[C@H]1c2nc(-c3ccc4c(c3)CCCC4)cn2CCN1C(=O)[C@@H](N)[C@@H](C)CC | 18.4 µM | 12.6 µM | 
20.8% | CC[C@H](C)[C@H](N)C(=O)N1CCn2cc(-c3cccc(C#N)c3)nc2[C@@H]1CC1CCCCC1 | 9.9 µM | 34.5 µM | 
26.5% | CC[C@H](C)[C@H](N)C(=O)N1CCn2cc(-c3ccc(Cl)cc3)nc2[C@@H]1CC1CCCCC1 | 10.1 µM | 9.4 µM | 
7.4% | CC[C@H](C)[C@H](N)C(=O)N1CCn2cc(-c3ccc(Cl)c(C)c3)nc2[C@@H]1CC1CCCCC1 | 5.8 µM | 8.2 µM | 
10.8% | c1cc2c(cc1-c1cn3c(n1)[C@H](CC1CCCCC1)N(CCNC1CCCC1)CC3)CCCC2 | 9.7 µM | 6.4 µM | 
19.4% | CC[C@H](C)[C@H](N)C(=O)N1CCn2cc(-c3cccc(I)c3)nc2[C@@H]1CC1CCCCC1 | 18.1 µM | 9.1 µM | 
11.5% | CC[C@H](C)[C@H](N)C(=O)N1CCn2cc(-c3ccc4c(c3)CCCC4)nc2[C@@H]1CC | 30.2 µM | 22.3 µM | 
19% | CN1CCC[C@H]1CN1CCn2cc(-c3ccc4c(c3)CCCC4)nc2[C@@H]1CC1CCCCC1 | 15.2 µM | 5 µM | 
6.9% | CC(C)(C)NCCN1CCn2cc(-c3ccc4c(c3)CCCC4)nc2[C@@H]1CC1CCCCC1 | 8.7 µM | 5.2 µM | 
19.9% | CC[C@H](C)[C@H](N)C(=O)N1CCn2cc(-c3cccc(Cl)c3Cl)nc2[C@@H]1CC1CCCCC1 | 9.2 µM | 13.8 µM | 
13.2% | CC[C@H](C)[C@H](N)C(=O)N1CCn2cc(-c3ccc(Cl)c(Cl)c3)nc2[C@@H]1CC1CCCCC1 | 9.9 µM | 6.6 µM | 
21.9% | CC[C@H](C)[C@H](N)C(=O)N1CCn2cc(-c3cccc(Br)c3)nc2[C@@H]1CC1CCCCC1 | 10.6 µM | 8.4 µM | 
9.4% | CC[C@H](C)[C@H](N)C(=O)N1CCn2cc(-c3ccc4c(c3)CCCC4)nc2[C@@H]1C(C)C | 19.8 µM | 13 µM | 
18.3% | CC[C@H](C)[C@H](N)C(=O)N1CCn2cc(-c3ccc4c(c3)CCCC4)nc2[C@@H]1CC1CCCCC1 [listing 1 of 2 here] |  |  | inhibition (MP41 [4]): Dose-Dependent Effect; Activity [5]: Tde; Activity (MP41 [6]): Dose-Dependent Effect; inhibition [7]: Dose-Dependent Effect; Activity (SK-MEL-2): inactive; inhibition [8]: Tde; Activity (A-375): inactive; Activity [9]: Dose-Dependent Effect; Activity (MP41 [10]): Active; inhibition (MP41 [11]): Dose-Dependent Effect; inhibition (MP41 [12]): Dose-Dependent Effect; inhibition [13]: Dose-Dependent Effect; Activity [14]: Active; Activity [15]: Dose-Dependent Effect; inhibition [16]: Dose-Dependent Effect; Activity 921 [17]: Active
10.9% | N[C@@H](CSSC[C@H](N)C(=O)N1CCn2cc(-c3ccccc3)nc2[C@@H]1CC1CCCCC1)C(=O)N1CCn2cc(-c3ccccc3)nc2[C@@H]1CC1CCCCC1 | 10.2 µM | 14.3 µM | Activity (MP41 [18]): Active; Activity 921 [19]: Active; Activity (SK-MEL-2): Active; Activity (A-375): Active; inhibition (MP41 [20]): Active; inhibition (MP41 [21]): Active
10.2% | CC[C@H](C)[C@H](N)C(=O)N1CCn2cc(-c3cc(Cl)ccc3Cl)nc2[C@@H]1CC1CCCCC1 | 11 µM | 6.8 µM | 
12.2% | N[C@H](CN1CCn2cc(-c3ccc4c(c3)CCCC4)nc2[C@@H]1CC1CCCCC1)C1CCCCC1 | 5.9 µM | 4.1 µM | Activity (HEK-293T [22]): Toxic; Activity (BEAS-2B [23]): Toxic
10.3% | CC[C@H](C)[C@H](N)C(=O)N1CCn2cc(-c3ccc4c(c3)CCCC4)nc2[C@H]1C(C)C | 21.4 µM | 11.6 µM | 
15.7% | CC(C)C[C@H](N)CN1CCn2cc(-c3ccc4c(c3)CCCC4)nc2[C@@H]1CC1CCCCC1 | 7.5 µM | 3.1 µM | Activity (HEK-293T [22]): Toxic; Activity (BEAS-2B [23]): Toxic
 | CC[C@H](C)[C@H](N)C(=O)N1CCn2cc(-c3ccc4c(c3)CCCC4)nc2[C@@H]1CC1CCCCC1.O=C(O)C(F)(F)F |  |  | remaining at 168 h [24]: 98.5%; solubility [25]: 9190 µg/mL; half-life [26]: 1.77 h; CLint scaled [27]: 16.4 mL/min/kg
17.8% | CC[C@H](C)[C@H](N)C(=O)N1CCn2cc(-c3cccc(F)c3)nc2[C@@H]1CC1CCCCC1 | 19.8 µM | 5 µM | 
 | CC[C@H](C)[C@H](N)C(=O)N1CCn2cc(-c3ccc4c(c3)CCCC4)nc2[C@@H]1CC1CCCCC1 [listing 2 of 2 here] | 3.5 µM | 6.8 µM | Activity (HEK-293T [28]): Non-Toxic; Activity (BEAS-2B [29]): Non-Toxic; IC50 [30]: 23 µM; IC50 [31]: 8.9 µM
13.7% | CC[C@H](C)[C@H](N)C(=O)N1CCn2cc(-c3cccc(C)c3C)nc2[C@@H]1CC1CCCCC1 | 12.8 µM | 7 µM | 
4.1% | CC[C@H](C)[C@H](N)C(=O)N1CCn2cc(-c3cccc(C(=O)OC)c3)nc2[C@@H]1CC1CCCCC1 | 16.2 µM | 25 µM | 
6.8% | c1cc2c(cc1-c1cn3c(n1)[C@H](CC1CCCCC1)N(CCN1CCCCC1)CC3)CCCC2 | 12.8 µM | 6.8 µM | 
